Experimental data: patent publication US20130143902A1, “COMPOSITIONS AND METHODS OF TREATING A PROLIFERATIVE DISEASE WITH A QUINAZOLINONE DERIVATIVE” (GILEAD CALISTOGA LLC, priority 2011, published 2013)
pEC50: −log10 of the molar value. “And” between values parts separate entries of the source, which are not always exact repeats. Equal values may be shown once. Read-outs that look alike come from different tables or passages of the source.

What was measured:
[1] = In vivo PK (cannulated rat, IV and PO); conditions: for half-life: read-out: T½ (converted)
[2] = Dog PK; format: in vivo; conditions: plasma
Description: The pharmacokinetics of Compound A in mouse and dogs were also examined. […] The results of Tmax (time of maximum observed concentration), Cmax (maximum concentration in plasma measured), AUC (area under the curve for plasma concentration versus time), Cl (total body clearance), and Vz (volume of distribution) were summarized in Table 4. As used herein, the mark ‘-’ represents data not relevant. AUC is shown as the unit of ng*h/mL (ng=nanograms, h=hour, mL=milliliter); ng are multiplied by h, and the value is divided by the volume in mL.

[3] = In vitro metabolism in human liver microsomes; format: in vitro ADME
[4] = system: pAkt in B Cell Malignancies; experiment: pAkt activity, B cell malignancies; format: cell-based; conditions: N = 7
Description: (§1) Cellular viability and pAkt activity were used to determine effects of Compounds A, C, and D in solid tumor, B-cell malignancies, and T-cell malignancies.

[5] = system: T Cell Malignancies; experiment: Cellular viability, T cell malignancies; format: cell-based; conditions: N = 7
Description: as §1

[6] = system: UACC-62; experiment: pAkt pathway inhibition, UACC-62; format: cell-based; conditions: Homo sapiens; UACC-62, Melanoma
[7] = system: IGROV-1; experiment: pAkt pathway inhibition, IGROV-1; format: cell-based; conditions: Homo sapiens; IGROV-1, Ovarian
[8] = system: LNCaP; experiment: pAkt pathway inhibition, LNCaP; format: cell-based; conditions: Homo sapiens, Prostate
[9] = system: T47D; experiment: pAkt pathway inhibition, T47D; format: cell-based; conditions: Homo sapiens, Breast
[10] = system: BT549; experiment: pAkt pathway inhibition, BT549; format: cell-based; conditions: Homo sapiens, BT-549; BT549, Breast
[11] = system: KM-12; experiment: pAkt pathway inhibition, KM-12; format: cell-based; conditions: Homo sapiens, KM12; KM-12, Colon
[12] = system: MDA-MB-468; experiment: pAkt pathway inhibition, MDA-MB-468; format: cell-based; conditions: Homo sapiens; MDA-MB-468, Breast
[13] = system: LN18; experiment: pAkt pathway inhibition, LN18; format: cell-based; conditions: Homo sapiens, LN-18; LN18, Glioma
[14] = system: U87MG; experiment: pAkt pathway inhibition, U87MG; format: cell-based; conditions: Homo sapiens, U-87 MG, Glioma
[15] = system: 22Rv1; experiment: pAkt pathway inhibition, 22Rv1; format: cell-based; conditions: Homo sapiens; 22Rv1, Prostate
[16] = system: OVCAR-3; experiment: Viability (AlamarBlue), OVCAR-3; format: cell-based; conditions: Homo sapiens; OVCAR-3, Ovarian
Procedure: (§2) For primary T-ALL samples, cell viability was determined using the BD Cell Viability kit (BD Biosciences) and fluorescent counting beads as previously described in Armstrong, F. et al., NOTCH is a key regulator of human T-cell acute leukemia initiating cell activity, Blood 113, 1730-1740 (2009). Cells were plated with MS5-DL1 stroma cells. After 72 hours following treatment, cells were harvested and stained with an APC-conjugated anti-human CD45 according to the manufacturer's instructions. For solid tumor cell lines, cellular viability was determined using the AlamarBlue kit (Invitrogen). About 10,000 cells in 100 μL of media containing 10% FBS were aliquoted into individual wells of a 96-well plate and treated with vehicle (DMSO) or compound in triplicate for 24 hours. Ten μL of AlamarBlue reagent was added to each well and incubated for 4 hours at 37° C. with 5% CO2. Fluorescence was measured with an excitation wavelength at 530 to 560 nm and emission wavelength at 590 nm using Spectramax M5 plate reader (Molecular Devices, Sunnyvale, Calif.).

[17] = system: T47D; experiment: Viability (AlamarBlue), T47D; format: cell-based; conditions: Homo sapiens, Breast
Procedure: as §2

[18] = system: LN18; experiment: Viability (AlamarBlue), LN18; format: cell-based; conditions: Homo sapiens, LN-18; LN18, Glioma
Procedure: as §2

[19] = system: LN229; experiment: Viability (AlamarBlue), LN229; format: cell-based; conditions: Homo sapiens, LN-229; LN229, Glioma
Procedure: as §2

[20] = system: U87MG; experiment: Viability (AlamarBlue), U87MG; format: cell-based; conditions: Homo sapiens, U-87 MG, Glioma
Procedure: as §2

[21] = system: Akt/PKB phosphorylation in primary T-ALL tumors; experiment: Akt/PKB phosphorylation in primary T-ALL tumors; format: cell-based, human; conditions: primary T-ALL tumors from four patients
Procedure: Cell lysates (from cell lines or thymocytes) were prepared on ice in M-PER Mammalian Protein Extraction reagent (Pierce) containing a cocktail of protease and phosphatase inhibitors as described in Swat, W. et al., Essential role of PI3 Kdelta and PI3 Kgamma in thymocyte survival, Blood 107, 2415-2422 (2006). Equal amounts of total protein from lysates were separated using SDS-PAGE, transferred to PVDF membrane (Immobilon-P, Millipore). Membranes were incubated overnight incubation with appropriate primary antibodies. Bound antibodies were visualized with HRP-conjugated secondary antibodies and ECL chemistry (SuperPico West, Pierce).

[22] = system: PTEN null T-ALL; experiment: Diseased Lck/PTEN^fl/fl mice with PTEN null T-ALL; format: in vivo; conditions: 30 mg/kg BID, Day 4 and 7, compared to control mice
[23] = IV 1 mg/kg, individual rats, 1 mg/kg
[24] = rat, plasma, iv, 1 mg/kg, IV 1 mg/kg, individual rats
[25] = rat, plasma, iv, 1 mg/kg, IV 1 mg/kg, mean of 3 rats
[26] = rat, plasma, po, 3 mg/kg, PO 3 mg/kg, individual rats
[27] = rat, plasma, po, 3 mg/kg, PO 3 mg/kg, mean of 3 rats
[28] = rat, plasma, po, 30 mg/kg, PO 30 mg/kg, individual rats
[29] = rat, plasma, po, 30 mg/kg, PO 30 mg/kg, mean of 3 rats

For `CC(Nc1ncnc2[nH]cnc12)c1nc2cccc(Cl)c2c(=O)n1-c1ccccc1` (centres unmarked) [Compound A, 2-(1-(9H-purin-6-ylamino)ethyl)-5-chloro-3-phenylquinazolin-4(3H)-one], the Vss [1, 23] was 1.32 L/kg and 1.674 L/kg, the Vz [1, 23] was 5.849 L/kg and 1.768 L/kg and the Bioavailability ([1]; PO 3 mg/kg, individual rats (Rat 1, 2, 3), 3 mg/kg) was 81% and 37%. For the same molecule, the Cmax ([1]; PO 3 mg/kg, individual rats, 3 mg/kg) was 457 ng/mL and 345 ng/mL, the Bioavailability ([1]; PO 30 mg/kg, individual rats (Rat 4, 5, 6), 30 mg/kg) was 138% and 128% and 87% and the Cmax ([1]; PO 30 mg/kg, individual rats, 30 mg/kg) was 5770 ng/mL and 4320 ng/mL. The AUC ([1]; plasma, Rat, PO 3 mg/kg (Table 4)) was 2000 ng·h/mL, the clearance ([1]; rat, plasma, iv, 1 mg/kg, IV 1 mg/kg (Table 4)) was 15.2 mL/min/kg and the AUC(0-inf) [1, 24] was 1050 ng·h/mL. It also gave an AUC(0-t) [1, 24] of 1040 ng·h/mL, a Vd ([1]; rat, plasma, iv, 1 mg/kg, IV 1 mg/kg, individual rats, read-out: Vss) of 2.64 L/kg and an AUC(0-inf) [1, 25] of 1130 ng·h/mL. It also gave an AUC(0-t) [1, 25] of 1100 ng·h/mL, a Vd ([1]; rat, plasma, iv, 1 mg/kg, IV 1 mg/kg, mean of 3 rats, read-out: Vss) of 1.88 L/kg and a Vd ([1]; rat, plasma, iv, 1 mg/kg, IV 1 mg/kg, mean of 3 rats, read-out: Vz) of 2.99 L/kg. The Vd ([1]; rat, plasma, iv, 1 mg/kg, Rat, IV 1 mg/kg (Table 4), read-out: Vz) was 2.99 L/kg, the Tmax ([1]; rat, plasma, po, 3 mg/kg, PO 3 mg/kg (Table 4)) was 1.3 h and the Tmax [1, 26] was 1 h. The Cmax ([1]; rat, plasma, po, 3 mg/kg, PO 3 mg/kg, individual rats, read-out: Cmax) was 568 ng/mL, the half-life [1, 26] was 2.9 h and the AUC(0-inf) [1, 27] was 2010 ng·h/mL. It also gave an AUC(0-t) [1, 27] of 2000 ng·h/mL, a Bioavailability ([1]; rat, plasma, po, 3 mg/kg, PO 3 mg/kg, mean of 3 rats, read-out: Bioavailability) of 59% and a Cmax ([1]; rat, plasma, po, 3 mg/kg, PO 3 mg/kg, mean of 3 rats, read-out: Cmax) of 456 ng/mL. The Cmax ([1]; rat, plasma, po, 3 mg/kg, Rat, PO 3 mg/kg (Table 4), read-out: Cmax) was 456 ng/mL, the AUC(0-inf) [1, 28] was 46800 ng·h/mL and the Tmax [1, 28] was 4 h. For the same molecule, the Cmax ([1]; rat, plasma, po, 30 mg/kg, PO 30 mg/kg, individual rats, read-out: Cmax) was 5800 ng/mL, the half-life [1, 28] was 2.27 h and the AUC(0-inf) [1, 29] was 40000 ng·h/mL. It also gave an AUC(0-t) [1, 29] of 40000 ng·h/mL, a Bioavailability ([1]; rat, plasma, po, 30 mg/kg, PO 30 mg/kg, mean of 3 rats, read-out: Bioavailability) of 118% and a Cmax ([1]; rat, plasma, po, 30 mg/kg, PO 30 mg/kg, mean of 3 rats, read-out: Cmax) of 5300 ng/mL. For the same molecule, the “time at which plasma levels peaked after administration” value ([1]; rats, single dose, over a period of 24 hours (data not shown)) was 2 to 4 h, the clearance ([2]; IV 1 mg/kg) was 6.08 mL/min/kg and the Vd ([2]; IV 1 mg/kg, read-out: Vz) was 0.891 L/kg. It also gave an AUC ([2]; PO 1 mg/kg) of 4450 ng·h/mL, a Cmax ([2]; PO 1 mg/kg) of 1040 ng/mL and a Tmax ([2]; PO 1 mg/kg) of 2.3 h. For the same molecule, the In vitro metabolism [3] was “Stable in human liver microsomes”, the pEC50 [4] was 6.74 and the pEC50 [5] was 5.62. For the same molecule, the EC50 [6] was 45 nM, the EC50 [7] was 10 nM and the EC50 [8] was 34 nM. For the same molecule, the EC50 [9] was 502 nM, the EC50 [10] was 34 nM and the EC50 [11] was 897 nM. It also gave an EC50 [12] of 56 nM, an EC50 [13] of 10 nM and an EC50 [14] of 17 nM. The EC50 [15] was 250 nM, the GI50 [16] was 850 nM and the GI50 [17] was 1700 nM. For the same molecule, the GI50 [18] was 3500 nM, the GI50 [19] was 3000 nM and the GI50 [20] was 2500 nM. The Akt/PKB phosphorylation [21] was “inhibition” and the luminescent signal [22] was “significantly lower”.
